Like-named read-outs stand apart in the source and are kept apart here.
Assays:
[1] = system: HepG2 cells; experiment: BrdU incorporation cell proliferation assay; assay type: cell-based
Procedure: HepG2 cells (see e.g., Aden et al., Nature 282:615-616 (1979)) (ATCC HB-8065) were maintained in DMEM/F-12 medium with 10% fetal bovine serum and 1% antibiotic/antimycotic. For routine culturing and mRNA preps, cells were grown in 75 cm^2 flasks and split every 4-5 days. For plate assays, cells were plated in 96-well microtiter plates at 1×10^5 cells per well in 100 μl of growth medium.
Depending on the desired exposure time, cell treatments began 3 or 4 days after splitting or plating. At this time, the cells were near or at confluency. […] Cell treatments were at 37° C.
Uptake of 5-bromo-2′-deoxyuridine (BrdU) was measured using the Cell Proliferation ELISA kit from Boehringer-Mannheim (Indianapolis, Ind.).
Cell proliferation assays based on measurement of BrdU incorporation were performed according to the manufacturer's instructions (Boehringer Mannheim “Cell Proliferation ELISA Kit”).

[2] = system: HepG2 cells; experiment: cDNA array (GF200) expression profiling; assay type: cell-based, human; details: for Number of genes with statistically significant (p<0.05) change in expression in three or more adjacent time points: 1 to 24 hr time course
Procedure: Cells were grown in DMEM/F12 medium with 10% fetal bovine serum in tissue culture flasks for 3 days following splitting, at which time they were at or near confluency. […] For each treated sample, an untreated control flask was set up with the same medium. Following the treatment period, mRNA was isolated by affinity purification on oligo(dT) cellulose resin using the Poly(A) Pure mRNA isolation kit from Ambion. RNA quality was assessed by agarose gel electrophoresis, and yields were determined by absorbance at 260 nm.
Radiolabeled cDNA for array hybridizations were prepared as follows. To a solution of 2 μg of RNA in 8 μl DEPC-treated water was added 2 μl of 1 μg/μl oligo(dT) (10-20 mer mixture, Research Genetics). After incubation for 10 min at 70° C., the solution was chilled on ice for 2 min, and then added to 6 μl of 5× first strand buffer (250 mM Tris-HCl (pH 8.3), 375 mM KCl, 15 mM MgCl2; Gibco-BRL), 1 μl of 0.1M DTT, 1.5 μl dNTP mix (20 mM each dATP, dGTP and dTTP), 10 μl of 10 mCi/ml [α-^33P]dCTP (1000 Ci/mmol, Amersham), and 1.5 μl of 200 U/μl reverse transcriptase (Superscript II, Gibco-BRL). Following a 90 min incubation at 37° C., cDNA targets were purified by passage through G-50 Sephadex spin columns (Pharmacia) or Bio-Spin 6 columns (BioRad).
GF200 cDNA arrays (Research Genetics) were washed in 0.5% boiling SDS for 5 min and prehybridized for 3 hrs at 42° C. in 5 ml MicroHyb solution (Research Genetics) containing 5 μl of 1 μg/ml poly(dA) (Research Genetics) and 5 μl of 1 μg/ml human Cot-I DNA (Gibco-BRL) that was denatured for 3 min at 100° C. prior to use. Labeled target nucleic acids, boiled for 3 min, were added directly, and hybridization was allowed to proceed for 16-18 hr at 42° C. in roller bottles in hybridization ovens. Arrays were washed twice in 2× SSC, 1% SDS at room temperature for 2 min, and then twice in 0.5× SSC, 1% SDS at 65° C. for 20 min. Arrays were exposed to storage phosphor screens for 3 days and scanned using a phosphorimager (Molecular Dynamics). Arrays were stripped for reuse by placing in boiling 0.5% SDS and then incubating for 1.5 hr with shaking at room temperature, allowing to solution to cool. After stripping, arrays were exposed to storage phosphor screens overnight to confirm loss of signal.
Spot intensities were determined using Pathways software (Research Genetics). Data from quadruplicate sets of hybridizations were normalized by local regression using NLR software (Tom Kepler, North Carolina State University). Cluster analysis was carried out using the Clustan Graphics software package from Clustan Limited (Edinburgh).

[3] = system: HepG2 cells; experiment: Quantitative RT-PCR (TaqMan); assay type: cell-based, human
Procedure: Primers and probes were designed using Primer Express software (Perkin-Elmer). TaqMan probes (Perkin-Elmer) were synthesized with reporter dye 6FAM at the 5′ end and quencher TAMRA at the 3′ end. RNA template concentrations were determined by absorbance at 260 nm. Reactions were performed as described […], using 2.5 ng RNA, 300 nM each PCR primer, and 150 nM Taqman probes. Control reactions were set up with reverse transcriptase or template omitted. Reactions were run on an ABI 7700 instrument (Perkin-Elmer) using the following cycling conditions: reverse transcription at 48° C. for 30 min; inactivation of reverse transcriptase at 95° C. for 10 min; 40 cycles of denaturation at 94° C. for 15 sec and extension at 60° C. for 1 min. Changes in expression were calculated from the displacement of the amplification curve in the treated sample relative to the control.

[4] = 20 mM acetaminophen, 16 mM caffeine, 100 mM thioacetamide

SMILES	inhibition at 20000 µM ([1]; Homo sapiens, HepG2, 24 h; read-out: Inhibition of BrdU uptake (cell proliferation)) [%]	IC50 ([1]; Homo sapiens, HepG2; read-out: IC50, BrdU incorporation in HepG2 cells) [mM]	Number of genes with statistically significant (p<0.05) change in expression in three or more adjacent time points [2, 4]	LDH-A down-regulation on arrays ([2]; 24 hr, 20 mM acetaminophen, wash 0.5× SSC at 65° C.) [fold]	Metallothionein-1G induction on arrays ([2]; acetaminophen, 24-hr time point) [fold]	TTF-1 interacting peptide 21 up-regulation on arrays ([2]; acetaminophen, 12 hr) [fold]	TTF-1 interacting peptide 21 down-regulation by RT-PCR ([3]; acetaminophen, 12 hr) [fold]	IC50 ([1]; Homo sapiens, HepG2, read-out: IC50, BrdU incorporation in HepG2 cells) [mM]	Metallothionein-1H induction [2]	Global differential gene expression (rms) over time ([2]; 1 to 24 hr, 20 mM acetaminophen, 16 mM caffeine, 100 mM thioacetamide)	Expression ratio (treated/control), Array: MT-1B (H72722) ([2]; Thioacetamide (24 hr))	Expression ratio (treated/control), Array: MT-1G (H53340) ([2]; Thioacetamide (24 hr))	Expression ratio (treated/control), Array: MT-1H (H77766) ([2]; Thioacetamide (24 hr))	Expression ratio (treated/control), Array: MT-1L (N80129) ([2]; Thioacetamide (24 hr))	Expression ratio (treated/control), Array: MT-2 (R16596) ([2]; Thioacetamide (24 hr))	Expression ratio (treated/control), RT-PCR: MT-1G (H53340) ([3]; Thioacetamide (24 hr))	Expression ratio (treated/control), RT-PCR: MT-2 (R16596) ([3]; Thioacetamide (24 hr))	Expression ratio (treated/control), RT-PCR: MT-1H (H77766) ([3]; Thioacetamide (24 hr), not detectable in control samples)
CC(=O)Nc1ccc(O)cc1 [acetaminophen]	67 to 80	~5	258	11	18	2.6	~2	–	–	–	–	–	–	–	–	–	–	–
CC(=N)S [thioacetamide]	–	–	215	–	–	–	–	57	strongly induced	a high degree of differential expression is observed both at early and late time points	15	15	16	14	15	3.1	7.4	>1000

Reference: patent publication US20020110808A1, “Toxicant-induced differential gene expression” (priority 2000, published 2002)
